According to paper PMC6057649, “Development of NanoLuc-PEST expressing Leishmania mexicana as a new drug discovery tool for axenic- and intramacrophage-based assays” (PLoS Neglected Tropical Diseases, 2018):
Where two headings read alike, the source gives them in different places. Peptide text beside a SMILES is read from it. * marks the point of attachment. Cbz = O=C(OCc1ccccc1)*

How the values were obtained:
MRC5 = test system: MRC5; parameters: method as in MMV Pathogen Box website; conditions: ref MMV Pathogen Box website; cited from earlier work
[1] = test system: NanoLuc-PEST expressing L. mexicana axenic amastigotes; assay: microbe, parasite or virus in culture; type: cell-based; conditions: for Relative Bioluminescence (%) / viability at 2 µM / viability at 10 µM: 72 hours, relative to DMSO only control, n = 4; for EC90: read-out: EC90 against amastigotes, Axenic; for viability at 2 µM / viability at 10 µM: read-out: Relative Bioluminescence (%)
HepG2 = conditions: ref MMV Pathogen Box website, cited from earlier work; for CC50: read-out: HepG2 CC50
[2] = test system: L. mexicana NanoLuc-PEST intramacrophage amastigotes; assay: Bioluminescence-based intramacrophage assay in THP-1 infection model; type: cell-based; conditions: for EC50: read-out: EC50 against amastigotes, Intramacrophage; for EC90: read-out: EC90 against amastigotes, Intramacrophage
[3] = test system: L. donovani axenic amastigotes; conditions: cited from earlier work
[4] = test system: L. donovani intramacrophage amastigotes; conditions: cited from earlier work
THP-1 cell line = assay: Macrophage toxicity assay (PrestoBlue); conditions: read-out: THP1 EC50, PMA-differentiated THP-1 macrophages, 72 hours
[5] = test system: NanoLuc-PEST-expressing L. mexicana promastigotes and axenic amastigotes; assay: Cycloheximide and proteasome (MG-132) assays on luciferase signal; type: cell-based; conditions: 5 μM, 6 hours
Experimental: Detection of NanoLuc and NanoLuc-PEST enzymes was performed using the lytic Nano-Glo Assay (Promega), according to the manufacturer’s instructions. Detection of PRE9 was performed using either the Firefly Luciferase Glow Assay (Pierce), or the Bright-Glow Assay (Promega). Bioluminescence was measured using the Promega GloMax Multi Detection System. All data was normalised by subtracting bioluminescence values for the untransformed, parental line, and all assays done in triplicate.
Cycloheximide assays were performed over 8 hours. Cells were seeded to a cell density of 5 x10^5 cells/well (100 μL/well). Cycloheximide (Sigma) was added to each well to a final concentration of 100 μM and incubated with cells for a range of time points between 0 and 8 hours. Bioluminescence was measured as described above, and the half-life of each luciferase was calculated by one phase decay non-linear regression (GraphPad Prism 6.0). Proteosome assays were performed using the method above with the addition of 5 μM MG-132 (Sigma) for 6 hours. Statistical significance was determined using a paired, two-tailed T-test (GraphPad Prism 6.0).

[6] = hit compounds from the axenic amastigote screen, S3 Table, read-out: EC50, Axenic Amastigotes
[7] = read-out: EC50 against amastigotes, Axenic
[8] = THP-1 infection model, bioluminescence
[9] = Leishmania mexicana, 2 µM compound
[10] = Leishmania mexicana, 10 µM compound

SMILES | Relative Bioluminescence (%) ([1]; 2 µM compound) | Relative Bioluminescence (%) ([1]; 10 µM compound) | also measured
O=C(Nc1ccc2c(c1)B(O)OC2)c1ccccc1C(F)(F)F [MMV652003] | -1.53% | -1.54% | CC50 (MRC5): > 32 µM; EC50 [1, 6]: 0.07 µM; EC50 [1, 7]: 0.077 µM; EC90 [1]: 0.104 µM; HepG2 CC20 (HepG2): 0.4 µM; EC50 [2, 8]: 3.64 µM; EC90 [2, 8]: 10.7 µM
COc1ccc(Oc2ccc([C@@H](C)N(C)c3ncc4c(N)nc(N)nc4n3)cc2)cc1 [MMV690102] | -5.29% | -1.34% | CC50 (MRC5): 5.4 µM; EC50 ([3]; value in brackets ref 49–51, read-out: Previous EC50, axenic amastigotes): 0.04 µM; EC50 [1, 7]: 0.06 µM; EC90 [1]: 0.123 µM; EC50 ([4]; value in brackets ref 49–51, read-out: Previous EC50, intramacrophage amastigotes): 0.1 µM; EC50 [2, 8]: 0.107 µM; EC90 [2, 8]: 0.16 µM
Cc1ccc(NC(=O)c2nc[nH]c2C(=O)Nc2nc3ccccc3[nH]2)c(C)c1 [MMV011903] | -0.43% | -1.14% | EC50 [1, 6]: 0.18 µM; EC50 [1, 7]: 0.189 µM; EC90 [1]: 0.32 µM; CC50 (HepG2): > 10 µM; HepG2 CC20 (HepG2): 8.4 µM; EC50 [2, 8]: 2.02 µM; EC90 [2, 8]: 2.29 µM; EC50 (THP-1 cell line): > 50 µM
C[C@]1(COc2ccc(N3CCC(Oc4ccc(OC(F)(F)F)cc4)CC3)cc2)Cn2cc([N+](=O)[O-])nc2O1 [MMV688262, Delamanid, reference compound] | – | – | EC50 ([3]; value in brackets ref 54, read-out: Previous EC50, axenic amastigotes): 0.005 µM; viability at 2 µM [1, 9]: -4.37%; viability at 10 µM [1, 10]: -2.71%; EC50 ([1]; Leishmania mexicana, hit compounds from the axenic amastigote screen, S3 Table, read-out: EC50, Axenic Amastigotes): 0.03 µM; EC50 ([1]; Leishmania mexicana, read-out: EC50 against amastigotes, Axenic): 0.033 µM; EC90 ([1]; Leishmania mexicana): 0.112 µM; EC50 ([4]; value in brackets ref 54, read-out: Previous EC50, intramacrophage amastigotes): 0.0865 to 0.298 µM; CC50 (HepG2): 72.5 µM; EC50 ([2]; Leishmania mexicana, THP-1): 1.78 µM; EC90 ([2]; Leishmania mexicana, THP-1): 25.1 µM
CC(C)C[C@@H](C=O)NC(=O)[C@H](CC(C)C)NC(=O)[C@H](CC(C)C)NC(=O)OCc1ccccc1 [MG-132] (Cbz-Leu-Leu-Leu-aldehyde) | – | – | bioluminescence relative to the DMSO control [5]: statistically significant increase
CCN(CC)S(=O)(=O)c1ccc(C(=O)Nc2cc(C)nn2-c2nc(C)c(C)c(=O)[nH]2)cc1 [MMV595321] | -4.54% | -3.10% | EC50 ([3]; value in brackets ref 49, 53, read-out: Previous EC50, axenic amastigotes): 0.501 µM; EC50 [1, 6]: 0.15 µM; EC50 [1, 7]: 0.153 µM; EC90 [1]: 0.357 µM; EC50 ([4]; value in brackets ref 49, 53, read-out: Previous EC50, intramacrophage amastigotes): 3.16 µM; EC50 [2, 8]: 5.29 µM; EC90 [2, 8]: 11.2 µM; EC50 (THP-1 cell line): > 50 µM
CC(Oc1cccc(Cl)c1)C(=O)Nc1ccc2oc(-c3ccncc3)nc2c1 (stereo not shown) [MMV688472] | 83.48% | 74.96% | –
Cc1cc2nc(NC(=O)C(C)(C)C)nc(Cl)c2n1Cc1ccc(Cl)cc1 [MMV688704] | 83.23% | 53.57% | –
O=C(c1cc2ccccc2o1)N1CCN(Cc2ccc3c(c2)OCO3)CC1 [MMV676520] | 56.86% | 68.82% | –
CCCn1nnc(NC(=O)COc2ccc(C3CCCCC3)cc2)n1 [MMV676597] | 85.91% | 73.07% | –
CCCc1ccc(S(=O)(=O)Nc2ccc(CN3CCN(CC4CC4)CC3)cc2)cc1 [MMV688125] | 86.53% | 100.33% | –
CCCNC(=O)N1CCC2(CC1)CC(=O)c1cc(C)ccc1O2 [MMV085230] | 100.02% | 105.91% | –
COc1ccc(-c2onc(C(F)(F)F)c2-c2ccc(Cl)cc2)c(O)c1 [MMV688766] | 82.40% | -2.36% | –
CCC(NC(=O)c1ccccc1NC(=O)c1ccc(C)cc1)C(=O)OC (stereo not shown) [MMV019551] | 70.29% | 42.20% | –
C[C@H]1c2cccc(O)c2C(=O)C2=C(O)[C@]3(O)C(=O)C(C(N)=O)=C(O)[C@@H](N(C)C)[C@@H]3[C@@H](O)[C@@H]21 [MMV000011, Doxycycline, reference compound] | – | – | viability at 2 µM [1, 9]: 95%; viability at 10 µM [1, 10]: 94.7%
Cc1cnc(N2CCN[C@@H](Cc3ccccc3)C2)nc1Oc1ccc(-n2ccnc2)cc1 [MMV687765] | 69.43% | 74.28% | –
O=C(N[C@H](Cc1ccccc1)C(=O)Nc1ccccc1N1CCOCC1)c1cccs1 [MMV688845] | 64.60% | 67.13% | –
COc1ccc(-c2cnc3ccc(N4CCCC4)nn23)cc1OC [MMV023985] | 57.95% | 46.63% | –

SMILES | Relative Bioluminescence (%) ([1]; 2 µM compound) | Relative Bioluminescence (%) ([1]; 10 µM compound) | also measured
CCCCN(CCCC)c1c(C#N)cc(S(=O)(=O)Nc2ccccc2)cc1C#N [MMV688467] | 6.98% | 2.46% | EC50 [1, 6]: 1.65 µM
CCNC(=O)C(C)Nc1nc(-c2cccnc2)nc2sc(C)c(C)c12 (stereo not shown) [MMV1037162] | 83.26% | 85.96% | –
COc1ccccc1OCCCCn1c(C2CC2)nc2ccccc21 [MMV676474] | 84.28% | 88.48% | –
O=C(Nc1c(O)cccc1-c1nc2c(C(=O)O)cccc2o1)c1cc(-c2ccccc2)on1 [MMV676008] | 79.00% | -1.15% | –
CNc1snc(C)c1C(=O)NCCOc1ccc(OC)cc1 [MMV688554] | 117.68% | 66.57% | –
Cc1ccc2oc(-c3cc(NC(=O)Cc4ccccc4)ccc3Cl)nc2c1 [MMV676509] | 92.05% | 59.65% | –
c1cncc(NCc2ccc(-c3cc4ccncc4cc3OC3CCNCC3)s2)c1 [MMV023969] | 76.39% | 74.16% | –
CC(C)(C)OC(=O)N1CCN(c2cc(-c3ccc(Oc4ccccc4)cc3)n[nH]2)CC1 [MMV676057] | 119.16% | 36.52% | –
CNc1cc(C)nc(C2CN(C(=O)c3n[nH]c4ccccc34)CCO2)c1 (stereo not shown) [MMV689709] | 77.39% | 68.10% | –
N=C(N)Nc1ccc(-c2ccc(-c3ccc(N=C(N)N)c(Cl)c3)o2)cc1Cl [MMV688271] | 98.92% | 56.10% | –
COc1ccc(-c2cnc3ccc(NCc4ccc(S(N)(=O)=O)cc4)nn23)cn1 [MMV010545] | 70.73% | 68.48% | –
COc1cc(C2=NCCN2)ccc1-c1cn(-c2cccc(C3=NCCN3)c2)nn1 [MMV688407] | 99.20% | 50.94% | –
Cc1ccc(NC(=O)CC2COc3ccccc3O2)cc1Cl (stereo not shown) [MMV676431] | 104.86% | 65.31% | –
COc1cccn2c(C(=O)N3CCCCC3)c(C(F)(F)F)nc12 [MMV1110498] | 66.34% | 77.35% | –
O=C(Nc1nnc(-c2ccc(Cl)cc2)o1)c1cccc(C(F)(F)F)c1 [MMV102872] | 0.33% | -0.65% | EC50 [1, 6]: 0.81 µM
CC(C)(C)OC(=O)N1CCC(Cn2nc(-c3cnc4ccccc4c3)c3c(N)ncnc32)CC1 [MMV688364] | 80.73% | 58.45% | –
N#Cc1ccc(-c2cnc(N)c(-c3ccc(C(N)=O)cc3)n2)cc1 [MMV085499] | 98.08% | 54.27% | –
